Common to all, as to experiment: relative viability (nuclei count vs DMSO), 5 days (fraction); higher = more cells survive
Compound in the experiment “IDH-C35 + Palbociclib”: Cc1ccccc1C(C(=O)NC1CCCCC1)N(C(=O)Cn1ccnc1C)c1cccc(F)c1 [IDH-C35] + CC(=O)c1c(C)c2cnc(Nc3ccc(N4CCNCC4)cn3)nc2n(C2CCCC2)c1=O [Palbociclib] (partner 0.5 µM)
The method in brief: (§1)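 Lung cancer cell lines were seeded in 1536-well plates and dosed by pin tool the next day, with either a single drug or a fixed anchor-drug dose combined with five library-drug doses (not always all listed) spaced in √10 steps. Five days later, one step fixed the cells and stained their nuclei (final 0.05% Triton X-100, 1% formaldehyde, 1 ug/ml Hoechst), and nuclei were counted on 4× images. Relative viability is the nuclei count in treated wells divided by the count in vehicle wells, and each value is the median of duplicate plates.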

Compound in the experiment “IDH-C35 + Olaparib”: Cc1ccccc1C(C(=O)NC1CCCCC1)N(C(=O)Cn1ccnc1C)c1cccc(F)c1 [IDH-C35] + O=C(c1cc(Cc2n[nH]c(=O)c3ccccc23)ccc1F)N1CCN(C(=O)C2CC2)CC1 [Olaparib] (partner 8 µM)
In short, it runs like this:
as §1

Compound in the experiment “IDH-C35 + Phenformin”: Cc1ccccc1C(C(=O)NC1CCCCC1)N(C(=O)Cn1ccnc1C)c1cccc(F)c1 [IDH-C35] + N=C(N)NC(=N)NCCc1ccccc1 [Phenformin] (partner 250 µM)
The method in brief: as §1

Compound in experiment [1]: CC1=C(C(=NN1)C)CC2=C(C3=C(S2)N(C(=O)N(C3=O)C)CC(C)C)C(=O)N4C[C@@H](CO4)O + CCNC(=O)c1noc(-c2cc(C(C)C)c(O)cc2O)c1-c1ccc(CN2CCOCC2)cc1 [Luminespib] (partner 0.01 µM)
The method in brief:
as §1

Take UMC-11: the relative viability with IDH-C35 + Palbociclib (first compound 0.08 µM) came out at 0.335; with IDH-C35 + Palbociclib (first compound 0.253 µM) it was 0.32; in the experiment with IDH-C35 + Palbociclib (first compound 0.8 µM), 0.341; with IDH-C35 + Palbociclib (first compound 2.53 µM), 0.299; with IDH-C35 + Palbociclib (first compound 8 µM), 0.337; with IDH-C35 + Olaparib (first compound 0.08 µM), 0.383. The relative viability with IDH-C35 + Olaparib (first compound 0.253 µM) stood at 0.366; with IDH-C35 + Olaparib (first compound 0.8 µM) it was 0.402; in the experiment with IDH-C35 + Olaparib (first compound 2.53 µM), 0.382; with IDH-C35 + Olaparib (first compound 8 µM) it was 0.445; with IDH-C35 + Phenformin (first compound 0.08 µM), 0.317; with IDH-C35 + Phenformin (first compound 0.253 µM), 0.337. Further, the relative viability with IDH-C35 + Phenformin (first compound 0.8 µM) amounted to 0.33; in the experiment with IDH-C35 + Phenformin (first compound 2.53 µM) it was 0.313; with IDH-C35 + Phenformin (first compound 8 µM), 0.291; in experiment [1] (first compound 0.0025 µM) it was 1.06; in experiment [1] (first compound 0.007906 µM) it was 1.33; in experiment [1] (first compound 0.025 µM), 0.959. Also, the relative viability in experiment [1] (first compound 0.07906 µM) is 1.08; in experiment [1] (first compound 0.25 µM) it was 1.13.

Values taken from the supplement of paper PMC10307832.
